Patent publication US20230167127A1, “COMPOUNDS AND THEIR USE IN THE TREATMENT OF BACTERIAL INFECTION” (Hoffmann-La Roche Inc., priority 2020, published 2023)
Where two headings read alike, the source gives them in different places.

System: Escherichia coli ATCC 25922
Experiment: 50% growth inhibitory concentration (IC50) determination, Iso-Sensitest broth dilution
Type: cell-based
Settings: strain Escherichia coli ATCC 25922, 10-point broth dilution, optical density at 600 nm over 16 h, read-out: Escherichia coli growth inhibition IC50
Summary of the method: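 Growth was tracked as optical density at 600 nm every 20 minutes for 16 h at 35±2° C. Compounds from DMSO stocks were serially diluted twofold over 10 points (e.g. 50–0.097 μM final) in Iso-Sensitest broth. Inhibition computed in log-phase growth to give IC50.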

[1] = Escherichia coli, ATCC25922, 16 h

Row | Compound | IC50 [nM] | IC50 [1] [nM]
1 | Cc1ncc(F)c2c1CC(NCCCc1cn(-c3cnc4c(n3)NC(=O)CO4)c(=O)o1)C2 (single isomer, unassigned; enantiomer b) [Example 368, 6-[5-[3-[(4-Fluoro-1-methyl-6,7-dihydro-5H-cyclopenta[c]pyridin-6-yl)amino]propyl]-2-oxo-1,3-oxazol-3-yl]-4H-pyrazino[2,3-b][1,4]oxazin-3-one, Enantiomer B] | < 97.7 | 
2 | Cc1nccc2c1CC(NCCCc1cn(-c3cnc4c(n3)NC(=O)CO4)c(=O)o1)C2 (single isomer, unassigned; enantiomer b) [Example 370, 6-[5-[3-[(1-Methyl-6,7-dihydro-5H-cyclopenta[c]pyridin-6-yl)amino]propyl]-2-oxo-1,3-oxazol-3-yl]-4H-pyrazino[2,3-b][1,4]oxazin-3-one; formic acid, Enantiomer B] | 195 | 
3 | CC(C)(N)COc1cc(F)c2c(c1)CC(CN1CCC3(CC1)CN(c1cnc4c(n1)NC(=O)CO4)C(=O)O3)C2 (single isomer, unassigned; enantiomer b) [Example 378, 6-[8-[[6-(2-Amino-2-methylpropoxy)-4-fluoro-2,3-dihydro-1H-inden-2-yl]methyl]-2-oxo-1-oxa-3,8-diazaspiro[4.5]decan-3-yl]-4H-pyrazino[2,3-b][1,4]oxazin-3-one; formic acid, Enantiomer B] | < 97.7 | 
4 | O=C1COc2ccc(N3CC(CCNCC4Cc5cccc(Cl)c5C4)OC3=O)nc2N1 (single isomer, unassigned; isomer a) [Example 6, 6-[5-[2-[(4-chloro-2,3-dihydro-1H-inden-2-yl)methylamino]ethyl]-2-oxo-1,3-oxazolidin-3-yl]-4H-pyrido[3,2-b][1,4]oxazin-3-one, Isomer A] |  | < 97.7
5 | N#Cc1cccc2c1CC(NC1CCC3(CC1)CN(c1ccc4c(n1)NC(=O)CO4)C(=O)O3)C2 (single isomer, unassigned; isomer a) [Example 39, 2-[[2-oxo-3-(3-oxo-4H-pyrido[3,2-b][1,4]oxazin-6-yl)-1-oxa-3-azaspiro[4.5]decan-8-yl]amino]-2,3-dihydro-1H-indene-4-carbonitrile, Isomer A; formic acid] | 737 | 
6 | N#Cc1cccc2c1CC(NCC(O)CC1CN(c3cnc4c(n3)NC(=O)CO4)C(=O)O1)C2 (single isomer, unassigned; isomer a) [Example 81, 2-[[2-hydroxy-3-[2-oxo-3-(3-oxo-4H-pyrazino[2,3-b][1,4]oxazin-6-yl)-1,3-oxazolidin-5-yl]propyl]amino]-2,3-dihydro-1H-indene-4-carbonitrile, Isomer A; formic acid] |  | 164
7 | O=C1COc2ncc(N3CC(CC(O)CNC4Cc5cccc(F)c5C4)OC3=O)nc2N1 (single isomer, unassigned; isomer a) [Example 83, 6-[5-[3-[(4-fluoro-2,3-dihydro-1H-inden-2-yl)amino]-2-hydroxypropyl]-2-oxo-1,3-oxazolidin-3-yl]-4H-pyrazino[2,3-b][1,4]oxazin-3-one, Isomer A; formic acid] | < 97.7 | 
8 | NC1c2cccc(Cl)c2CC1CNCCC1CN(c2ccc3c(n2)NC(=O)CO3)C(=O)O1 (single isomer, unassigned; isomer a) [Example 207, 6-[2-Oxo-5-[2-[[1,2-trans-1-amino-4-chloro-2,3-dihydro-1H-inden-2-yl]methylamino]ethyl]-1,3-oxazolidin-3-yl]-4H-pyrido[3,2-b][1,4]oxazin-3-one, Isomer A] |  | < 97.7
9 | Cc1ncc(F)c2c1CC(NCC(O)CC1CN(c3cnc4c(n3)NC(=O)CO4)C(=O)O1)C2 (single isomer, unassigned; isomer a) [Example 313, 6-[2-Oxo-5-[3-[(4-fluoro-1-methyl-6,7-dihydro-5H-cyclopenta[c]pyridin-6-yl)amino]-2-hydroxypropyl]-1,3-oxazolidin-3-yl]-4H-pyrazino[2,3-b][1,4]oxazin-3-one; formic acid, Isomer A] |  | 1900
10 | Cc1ncc(F)c2c1CC(NC1CC(C3CN(c4cnc5c(n4)NC(=O)CO5)C(=O)O3)C1)C2 (single isomer, unassigned; isomer a) [Example 328, 6-[5-[3-[(4-fluoro-1-methyl-6,7-dihydro-5H-cyclopenta[c]pyridin-6-yl)amino]cyclobutyl]-2-oxo-1,3-oxazolidin-3-yl]-4H-pyrazino[2,3-b][1,4]oxazin-3-one, Isomer A] |  | 885
11 | Cc1ncc(F)c2c1CC(NC(C)CCC1CN(c3cnc4c(n3)NC(=O)CO4)C(=O)O1)C2 (single isomer, unassigned; isomer a) [Example 333, 6-[5-[3-[(4-fluoro-1-methy1-6,7-dihydro-5H-cyclopenta[c]pyridin-6-yl)amino]butyl]-2-oxo-1,3-oxazolidin-3-yl]-4H-pyrazino[2,3-b][1,4]oxazin-3-one, Isomer A] |  | 265
12 | NC(=O)COc1cc(F)c2c(c1)CC(CNCC[C@H]1CN(c3cnc4c(n3)NC(=O)CO4)C(=O)O1)C2 (single isomer, unassigned; isomer a) [Example 379] |  | < 97.7
13 | NC(=O)COc1cc(F)c2c(c1)CC(CNCC[C@@H]1CN(c3cnc4c(n3)NC(=O)CO4)C(=O)O1)C2 (single isomer, unassigned; isomer a) [Example 381] |  | 105
14 | O=C1COc2ccc(N3CC(CCNCC4Cc5cccc(Cl)c5C4)OC3=O)nc2N1 (single isomer, unassigned; isomer b) [Example 7, 6-[5-[2-[(4-chloro-2,3-dihydro-1H-inden-2-yl)methylamino]ethyl]-2-oxo-1,3-oxazolidin-3-yl]-4H-pyrido[3,2-b][1,4]oxazin-3-one, Isomer B; formic acid] | < 97.7 | 
15 | N#Cc1cccc2c1CC(NC1CCC3(CC1)CN(c1ccc4c(n1)NC(=O)CO4)C(=O)O3)C2 (single isomer, unassigned; isomer b) [Example 40, 2-[[2-oxo-3-(3-oxo-4H-pyrido[3,2-b][1,4]oxazin-6-yl)-1-oxa-3-azaspiro[4.5]decan-8-yl]amino]-2,3-dihydro-1H-indene-4-carbonitrile. Isomer B; formic acid] | 153 | 
16 | N#Cc1cccc2c1CC(NCC(O)CC1CN(c3cnc4c(n3)NC(=O)CO4)C(=O)O1)C2 (single isomer, unassigned; isomer b) [Example 82, 2-[[2-hydroxy-3-[2-oxo-3-(3-oxo-4H-pyrazino[2,3-b][1,4]oxazin-6-yl)-1,3-oxazolidin-5-yl]propyl]amino]-2,3-dihydro-1H-indene-4-carbonitrile, Isomer B; formic acid] | 152 | 
17 | O=C1COc2ncc(N3CC(CC(O)CNC4Cc5cccc(F)c5C4)OC3=O)nc2N1 (single isomer, unassigned; isomer b) [Example 84, 6-[5-[3-[(4-fluoro-2,3-dihydro-1H-inden-2-yl)amino]-2-hydroxypropyl]-2-oxo-1,3-oxazolidin-3-yl]-4H-pyrazino[2,3-b][1,4]oxazin-3-one, Isomer B; formic acid] | 217 | 
18 | Cc1ncc(F)c2c1CC(NCC(O)CC1CN(c3cnc4c(n3)NC(=O)CO4)C(=O)O1)C2 (single isomer, unassigned; isomer b) [Example 314, 6-[2-Oxo-5-[3-[(4-fluoro-1-methyl-6,7-dihydro-5H-cyclopenta[c]pyridin-6-yl)amino]-2-hydroxypropyl]-1,3-oxazolidin-3-yl]-4H-pyrazino[2,3-b][1,4]oxazin-3-one; formic acid, Isomer B] | 1180 | 
19 | Cc1ncc(F)c2c1CC(NC1CC(C3CN(c4cnc5c(n4)NC(=O)CO5)C(=O)O3)C1)C2 (single isomer, unassigned; isomer b) [Example 329, 6-[5-[3-[(4-fluoro-1-methyl-6,7-dihydro-5H-cyclopenta[c]pyridin-6-yl)amino]cyclobutyl]-2-oxo-1,3-oxazolidin-3-yl]-4H-pyrazino[2,3-b][1,4]oxazin-3-one, Isomer B] | 453 | 
20 | Cc1ncc(F)c2c1CC(NC(C)CCC1CN(c3cnc4c(n3)NC(=O)CO4)C(=O)O1)C2 (single isomer, unassigned; isomer b) [Example 334, 6-[5-[3-[(4-fluoro-1-methyl-6,7-dihydro-5H-cyclopenta[c]pyridin-6-yl)amino]butyl]-2-oxo-1,3-oxazolidin-3-yl-4H-pyrazino[2,3-b][1,4]oxazin-3-one, Isomer B] | 321 | 
21 | NC(=O)COc1cc(F)c2c(c1)CC(CNCC[C@H]1CN(c3cnc4c(n3)NC(=O)CO4)C(=O)O1)C2 (single isomer, unassigned; isomer b) [Example 380] | < 97.7 | 
22 | NC(=O)COc1cc(F)c2c(c1)CC(CNCC[C@@H]1CN(c3cnc4c(n3)NC(=O)CO4)C(=O)O1)C2 (single isomer, unassigned; isomer b) [Example 382] | 158 | 
23 | Cc1ncc(F)c2c1CC(NCC(O)CC1CN(c3cnc4c(n3)NC(=O)CO4)C(=O)O1)C2 (single isomer, unassigned; isomer c) [Example 315, 6-[2-Oxo-5-[3-[(4-fluoro-1-methyl-6,7-dihydro-5H-cyclopenta[c]pyridin-6-yl)amino]-2-hydroxypropyl]-1,3-oxazolidin-3-yl]-4H-pyrazino[2,3-b][1,4]oxazin-3-one; formic acid, Isomer C] |  | 668
24 | Cc1ncc(F)c2c1CC(NCC(O)CC1CN(c3cnc4c(n3)NC(=O)CO4)C(=O)O1)C2 (single isomer, unassigned; isomer d) [Example 316, 6-[2-Oxo-5-[3-[(4-fluoro-1-methyl-6,7-dihydro-5H-cyclopenta[c]pyridin-6-yl)amino]-2-hydroxypropyl]-1,3-oxazolidin-3-yl]-4H-pyrazino[2,3-b][1,4]oxazin-3-one; formic acid, Isomer D] | 957 | 
25 | Cc1c(OCC2CCN2)ncc2c1CC(CNCCC1CN(c3ccc4c(n3)NC(=O)CO4)C(=O)O1)C2 (stereo in doubt) [Example 219, 6-[5-[2-[[4-methyl-3-[[(2R)-azetidin-2-yl]methoxy]-6,7-dihydro-5H-cyclopenta[c]pyridin-6-yl]methylamino]ethyl]-2-oxo-1,3-oxazolidin-3-yl]-4H-pyrido[3,2-b][1,4]oxazin-3-one] |  | 378
